From patent US20240132431A1, “METHOD FOR ALKYLATING ACIDIC FUNCTIONAL GROUP” (Chugai Seiyaku Kabushiki Kaisha, priority 2021, published 2024)

Target: T1, Bcl-2 protein (Recombinant Human Bcl-2 Protein) (Homo sapiens, UniProt P10415)
T1 construct: purchased Novus NBP2-34889
Assay: Binding evaluation of mixture library compounds to Bcl-2 using AS-MS (affinity selection mass spectrometry)
Summary of the method: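 Pooled library of ~1200 compounds ([…] each, final) incubated with recombinant human Bcl-2 (20 μM final) in Tris-HCl pH 7.4, NaCl, Tween-20, DTT buffer, dark, 23° C., 1 h. Bound fraction recovered by SEC spin column, organic extraction, reversed-phase LC/MS. ASMS Ratio (%) = (A−C)/B×100 versus protein-free standard and SEC blank.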

T1 sequence (P10415 whole entry): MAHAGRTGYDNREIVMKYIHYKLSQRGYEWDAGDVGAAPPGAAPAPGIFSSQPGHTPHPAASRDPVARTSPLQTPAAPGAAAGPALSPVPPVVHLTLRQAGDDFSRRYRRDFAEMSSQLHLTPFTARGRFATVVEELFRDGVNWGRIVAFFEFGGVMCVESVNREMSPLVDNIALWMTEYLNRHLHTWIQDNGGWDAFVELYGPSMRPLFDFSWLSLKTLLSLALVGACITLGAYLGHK

Row | Structure (SMILES) | ASMS ratio (%) (n = 1) | ASMS ratio (%) (n = 2)
1 | CCOc1cccc(-c2ccc(C(C)N3CCN(c4ccc(C(=O)NS(=O)(=O)C(C)(C)C)cc4)CC3)cc2)c1 (centres unmarked) [B2L097-01, N-tert-Butylsulfonyl-4-[4-[1-[4-(3-ethoxyphenyl)phenyl]ethyl]piperazin-1-yl]benzamide] | 0.0% | 0.0%
2 | CCOc1cncc(-c2ccc(C(C)N3CCN(c4ccc(C(=O)NS(=O)(=O)C(C)(C)C)cc4)CC3)cc2)c1 (centres unmarked) [B2L098-01, N-tert-Butylsulfonyl-4-[4-[1-[4-(5-ethoxypyridin-3-yl)phenyl]ethyl]piperazin-1-yl]benzamide] | 3.9% | −5.0%
3 | CCOc1cncc(-c2ccc(C(C)N3CCN(c4ccc(C(=O)NS(=O)(=O)C(C)(C)C)cc4)CC3)c(F)c2)c1 (centres unmarked) [B2L100-01, N-tert-Butylsulfonyl-4-[4-[1-[4-(5-ethoxypyridin-3-yl)-2-fluorophenyl]ethyl]piperazin-1-yl]benzamide] | 0.0% | 0.0%
4 | CCOc1cccc(-c2csc(C(=O)N3CCN(c4ccc(C(=O)NS(=O)(=O)CCC(F)(F)F)nn4)CC3)c2)c1 [B2N001-01, 6-[4-[4-(3-Ethoxyphenyl)thiophene-2-carbonyl]piperazin-1-yl]-N-(3,3,3-trifluoropropylsulfonyl)pyridazine-3-carboxamide] | – | 0.0%
5 | CCOc1cncc(-c2csc(C(=O)N3CCN(c4ccc(C(=O)NS(=O)(=O)CCC(F)(F)F)nn4)CC3)c2)c1 [B2N002-01, 6-[4-[4-(5-Ethoxypyridin-3-yl)thiophene-2-carbonyl]piperazin-1-yl]-N-(3,3,3-trifluoropropylsulfonyl)pyridazine-3-carboxamide] | 0.0% | 0.0%
6 | CCOc1cccc(-c2ccc(C(=O)N3CCN(c4ccc(C(=O)NS(=O)(=O)CCC(F)(F)F)nn4)CC3)cc2C)c1 [B2N003-01, 6-[4-[4-(3-Ethoxyphenyl)-3-methylbenzoyl]piperazin-1-yl]-N-(3,3,3-trifluoropropylsulfonyl)pyridazine-3-carboxamide] | 0.0% | 0.0%
7 | CCOc1cncc(-c2ccc(C(=O)N3CCN(c4ccc(C(=O)NS(=O)(=O)CCC(F)(F)F)nn4)CC3)cc2C)c1 [B2N004-01, 6-[4-[4-(5-Ethoxypyridin-3-yl)-3-methylbenzoyl]piperazin-1-yl]-N-(3,3,3-trifluoropropylsulfonyl)pyridazine-3-carboxamide] | 1.2% | −2.0%
8 | CCOc1cccc(C#Cc2ccccc2C(=O)N2CCN(c3ccc(C(=O)NS(=O)(=O)CCC(F)(F)F)nn3)CC2)c1 [B2N007-01, 6-[4-[2-[2-(3-Ethoxyphenyl)ethynyl]benzoyl]piperazin-1-yl]-N-(3,3,3-trifluoropropylsulfonyl)pyridazine-3-carboxamide] | 0.0% | 0.0%
9 | CCOc1cncc(C#Cc2ccccc2C(=O)N2CCN(c3ccc(C(=O)NS(=O)(=O)CCC(F)(F)F)nn3)CC2)c1 [B2N008-01, 6-[4-[2-[2-(5-Ethoxypyridin-3-yl)ethynyl]benzoyl]piperazin-1-yl]-N-(3,3,3-trifluoropropylsulfonyl)pyridazine-3-carboxamide] | 0.0% | −0.4%
10 | CCOc1cccc(C#Cc2cncc(C(=O)N3CCN(c4ccc(C(=O)NS(=O)(=O)CCC(F)(F)F)nn4)CC3)c2)c1 [B2N009-01, 6-[4-[5-[2-(3-Ethoxyphenyl)ethynyl]pyridine-3-carbonyl]piperazin-1-yl]-N-(3,3,3-trifluoropropylsulfonyl)pyridazine-3-carboxamide] | 0.0% | −0.4%
11 | CCOc1cncc(C#Cc2cncc(C(=O)N3CCN(c4ccc(C(=O)NS(=O)(=O)CCC(F)(F)F)nn4)CC3)c2)c1 [B2N010-01, 6-[4-[5-[2-(5-Ethoxypyridin-3-yl)ethynyl]pyridine-3-carbonyl]piperazin-1-yl]-N-(3,3,3-trifluoropropylsulfonyl)pyridazine-3-carboxamide] | 0.0% | 0.0%
12 | CCOc1cccc(-c2ccccc2CCC(=O)N2CCN(c3ccc(C(=O)NS(=O)(=O)CCC(F)(F)F)nn3)CC2)c1 [B2N011-01, 6-[4-[3-[2-(3-Ethoxyphenyl)phenyl]propanoyl]piperazin-1-yl]-N-(3,3,3-trifluoropropylsulfonyl)pyridazine-3-carboxamide] | 0.0% | 0.0%
13 | CCOc1cncc(-c2ccccc2CCC(=O)N2CCN(c3ccc(C(=O)NS(=O)(=O)CCC(F)(F)F)nn3)CC2)c1 [B2N012-01, 6-[4-[3-[2-(5-Ethoxypyridin-3-yl)phenyl]propanoyl]piperazin-1-yl]-N-(3,3,3-trifluoropropylsulfonyl)pyridazine-3-carboxamide] | 0.0% | 0.0%
14 | CCOc1cccc(-c2ccc(C(=O)N3CCN(c4ccc(C(=O)NS(=O)(=O)CCC(F)(F)F)nn4)CC3)c3ccccc23)c1 [B2N013-01, 6-[4-[4-(3-Ethoxyphenyl)naphthalene-1-carbonyl]piperazin-1-yl]-N-(3,3,3-trifluoropropylsulfonyl)pyridazine-3-carboxamide] | 0.0% | 0.0%
15 | CCOc1cncc(-c2ccc(C(=O)N3CCN(c4ccc(C(=O)NS(=O)(=O)CCC(F)(F)F)nn4)CC3)c3ccccc23)c1 [B2N014-01, 6-[4-[4-(5-Ethoxypyridin-3-yl)naphthalene-1-carbonyl]piperazin-1-yl]-N-(3,3,3-trifluoropropylsulfonyl)pyridazine-3-carboxamide] | 0.0% | 0.0%
16 | CCOc1cncc(-c2cc(C(=O)N3CCN(c4ccc(C(=O)NS(=O)(=O)CCC(F)(F)F)nn4)CC3)cc(C(C)(C)C)c2)c1 [B2N016-01, 6-[4-[3-tert-Butyl-5-(5-ethoxypyridin-3-yl)benzoyl]piperazin-1-yl]-N-(3,3,3-trifluoropropylsulfonyl)pyridazine-3-carboxamide] | 0.0% | 0.0%
17 | CCOc1cncc(-c2cc(C(=O)N3CCN(c4ccc(C(=O)NS(=O)(=O)CCC(F)(F)F)nn4)CC3)cc(C(F)(F)F)c2)c1 [B2N018-01, 6-[4-[3-(5-Ethoxypyridin-3-yl)-5-(trifluoromethyl)benzoyl]piperazin-1-yl]-N-(3,3,3-trifluoropropylsulfonyl)pyridazine-3-carboxamide] | 0.0% | 1.0%
18 | CCOc1cncc(C#Cc2cc(C(=O)N3CCN(c4ccc(C(=O)NS(=O)(=O)CCC(F)(F)F)nn4)CC3)cc(C(F)(F)F)c2)c1 [B2N020-01, 6-[4-[3-[2-(5-Ethoxypyridin-3-yl)ethynyl]-5-(trifluoromethyl)benzoyl]piperazin-1-yl]-N-(3,3,3-trifluoropropylsulfonyl)pyridazine-3-carboxamide] | 0.0% | 0.0%
19 | CCOc1cccc(-c2cnn(-c3cc(C(=O)N4CCN(c5ccc(C(=O)NS(=O)(=O)CCC(F)(F)F)nn5)CC4)cc(C(F)(F)F)c3)c2)c1 [B2N021-01, 6-[4-[3-[4-(3-Ethoxyphenyl)pyrazol-1-yl]-5-(trifluoromethyl)benzoyl]piperazin-1-yl]-N-(3,3,3-trifluoropropylsulfonyl)pyridazine-3-carboxamide] | – | 0.0%
20 | CCOc1cncc(-c2cnn(-c3cc(C(=O)N4CCN(c5ccc(C(=O)NS(=O)(=O)CCC(F)(F)F)nn5)CC4)cc(C(F)(F)F)c3)c2)c1 [B2N022-01, 6-[4-[3-[4-(5-Ethoxypyridin-3-yl)pyrazol-1-yl]-5-(trifluoromethyl)benzoyl]piperazin-1-yl]-N-(3,3,3-trifluoropropylsulfonyl)pyridazine-3-carboxamide] | 0.0% | 0.0%
21 | CCOc1cccc(-c2csc(C(=O)N3CCN(c4ccc(C(=O)NS(=O)(=O)CCC(F)(F)F)cc4)CC3)c2)c1 [B2N023-01, 4-[4-[4-(3-Ethoxyphenyl)thiophene-2-carbonyl]piperazin-1-yl]-N-(3,3,3-trifluoropropylsulfonyl)benzamide] | 0.0% | 0.0%
22 | CCOc1cncc(-c2csc(C(=O)N3CCN(c4ccc(C(=O)NS(=O)(=O)CCC(F)(F)F)cc4)CC3)c2)c1 [B2N024-01, 4-[4-[4-(5-Ethoxypyridin-3-yl)thiophene-2-carbonyl]piperazin-1-yl]-N-(3,3,3-trifluoropropylsulfonyl)benzamide] | 0.0% | 0.0%
23 | CCOc1cccc(-c2ccc(C(=O)N3CCN(c4ccc(C(=O)NS(=O)(=O)CCC(F)(F)F)cc4)CC3)cc2C)c1 [B2N025-01, 4-[4-[4-(3-Ethoxyphenyl)-3-methylbenzoyl]piperazin-1-yl]-N-(3,3,3-trifluoropropylsulfonyl)benzamide] | 0.0% | 0.0%
24 | CCOc1cncc(-c2ccc(C(=O)N3CCN(c4ccc(C(=O)NS(=O)(=O)CCC(F)(F)F)cc4)CC3)cc2C)c1 [B2N026-01, 4-[4-[4-(5-Ethoxypyridin-3-yl)-3-methylbenzoyl]piperazin-1-yl]-N-(3,3,3-trifluoropropylsulfonyl)benzamide] | −1.5% | −0.7%
25 | CCOc1cncc(-c2ccc(C(=O)N3CCN(c4ccc(C(=O)NS(=O)(=O)CCC(F)(F)F)cc4)CC3)cc2F)c1 [B2N028-01, 4-[4-[4-(5-Ethoxypyridin-3-yl)-3-fluorobenzoyl]piperazin-1-yl]-N-(3,3,3-trifluoropropylsulfonyl)benzamide] | −0.7% | −0.9%
26 | CCOc1cncc(C#Cc2ccccc2C(=O)N2CCN(c3ccc(C(=O)NS(=O)(=O)CCC(F)(F)F)cc3)CC2)c1 [B2N030-01, 4-[4-[2-[2-(5-Ethoxypyridin-3-yl)ethynyl]benzoyl]piperazin-1-yl]-N-(3,3,3-trifluoropropylsulfonyl)benzamide] | 0.0% | 0.0%
